Measured values taken from ChEMBL document CHEMBL1157603, “Structural insights into the design of small molecule inhibitors that selectively antagonize Mcl-1” (J Med Chem, 2010).

Assays:
[1] = molecular target: T1, Induced myeloid leukemia cell differentiation protein Mcl-1 (Homo sapiens, UniProt Q07820); test: Binding affinity to human Mcl1 by isothermal titration calorimetry
[2] = molecular target: T2, Bcl-2-like protein 1 (Homo sapiens, UniProt Q07817); test: Binding affinity to human Bcl-XL by isothermal titration calorimetry
T2 sequence (Q07817 whole entry): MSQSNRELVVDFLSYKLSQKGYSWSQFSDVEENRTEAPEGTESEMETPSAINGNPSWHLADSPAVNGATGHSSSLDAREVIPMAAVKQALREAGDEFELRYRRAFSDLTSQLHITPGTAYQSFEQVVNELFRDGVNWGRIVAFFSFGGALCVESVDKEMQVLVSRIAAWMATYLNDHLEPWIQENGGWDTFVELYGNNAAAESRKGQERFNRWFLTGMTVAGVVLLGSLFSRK

[3] = molecular target: T2, Bcl-2-like protein 1; test: Displacement of fluorescein-labeled Bak-BH3 peptide from human Bcl-XL by fluorescence polarization assay
[4] = molecular target: T1, Induced myeloid leukemia cell differentiation protein Mcl-1; test: Displacement of fluorescein-labeled Bak-BH3 peptide from human Mcl1 by fluorescence polarization assay

T1 sequence (Q07820 whole entry): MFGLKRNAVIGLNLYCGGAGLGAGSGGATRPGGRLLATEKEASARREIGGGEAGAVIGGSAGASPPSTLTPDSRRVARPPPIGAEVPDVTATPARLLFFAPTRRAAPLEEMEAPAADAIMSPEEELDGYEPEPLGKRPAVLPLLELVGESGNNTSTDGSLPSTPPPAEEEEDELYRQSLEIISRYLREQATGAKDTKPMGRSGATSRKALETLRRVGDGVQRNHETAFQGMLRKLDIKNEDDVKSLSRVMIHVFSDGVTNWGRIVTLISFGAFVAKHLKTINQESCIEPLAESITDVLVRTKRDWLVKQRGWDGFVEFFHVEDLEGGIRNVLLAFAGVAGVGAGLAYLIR

Row | Kd [1] | Kd [2] | Ki [3] | Ki [4] | SMILES
1 | 84 µM | 8.7 µM | 10 µM | 44 µM | CC(C)C(C(=O)O)N1C(=O)/C(=C/c2ccc(Br)cc2)SC1=S (configuration not stated)
2 | 0.25 µM | 3.4 µM | 3.7 µM | 6.9 µM | COc1cccc(-c2ccc(/C=C3\SC(=S)N([C@@H](Cc4ccccc4)C(=O)O)C3=O)cn2)c1OC
3 | 10 µM | > 750 µM | > 100 µM | 8 µM | COc1ccc(-c2ccc(/C=C3\SC(=S)N([C@@H](Cc4ccccc4)C(=O)O)C3=O)cn2)cc1OC
